Results from ChEMBL document CHEMBL2429756, “Synthesis, docking, and in vitro studies of some substituted bischalcones on acid and alkaline phosphatases” (Med Chem Res, 2013).
pKi: −log10 of the molar value.

Assays:
Capra hircus [1] = species: Capra hircus; experiment: Inhibition of goat liver acid phosphatase assessed as residual activity using p-nitrophenyl phosphate as substrate at 1 mM after 30 mins relative to control
[2] = Competitive inhibition of goat liver alkaline phosphatase assessed as residual activity using p-nitrophenyl phosphate as substrate by Lineweaver-Burk plot analysis; design: species or system Capra hircus
Capra hircus [3] = species: Capra hircus; experiment: Inhibition of goat liver alkaline phosphatase assessed as residual activity using p-nitrophenyl phosphate as substrate at 1 mM after 30 mins relative to control
[4] = Non-competitive inhibition of goat liver alkaline phosphatase assessed as residual activity using p-nitrophenyl phosphate as substrate by Lineweaver-Burk plot analysis; design: species or system Capra hircus

Row | Activity (Capra hircus [1]) [%] | pKi [2] | Activity (Capra hircus [3]) [%] | pKi [4] | SMILES
1 | 113 | 3.33 | 40.2 | – | CN(C)c1ccc(/C=C2\CCC/C(=C\c3ccc(N(C)C)cc3)C2=O)cc1
2 | 140 | 2.96 | 57.8 | – | O=C1/C(=C/c2ccc(F)cc2)CCC/C1=C\c1ccc(F)cc1
3 | 133 | 3.60 | 26 | – | O=C1/C(=C/c2ccc([N+](=O)[O-])cc2)CCC/C1=C\c1ccc([N+](=O)[O-])cc1
4 | 121 | 3.33 | 41.2 | – | O=C1/C(=C/c2ccccc2)CCC/C1=C\c1ccccc1 [2,6-DIBENZYLIDENECYCLOHEXANONE]
5 | 127 | 3.25 | 43.5 | – | O=C1/C(=C/c2ccc(Br)cc2)CCC/C1=C\c1ccc(Br)cc1
6 | 129 | 3.17 | 46.2 | – | O=C1/C(=C/c2ccc(Cl)cc2)CCC/C1=C\c1ccc(Cl)cc1
7 | 149 | – | 46 | 3.07 | Cc1ccc(/C=C2\CCC/C(=C\c3ccc(C)cc3)C2=O)cc1
8 | – | 2.40 | 88 | – | c1ccc([C@H]2CN3CCSC3=N2)cc1 [LEVAMISOLE]
9 | 158 | 3.41 | 31.7 | – | COc1ccc(/C=C2\CCC/C(=C\c3ccc(OC)cc3)C2=O)cc1
10 | 129 | – | 30.8 | 3.36 | O=C1/C(=C/C=C/c2ccccc2)CCC/C1=C\C=C\c1ccccc1
